ChEMBL document CHEMBL1140522, “Peptidomimetic inhibitors of farnesyltransferase with high in vitro activity and significant cellular potency” (Bioorg Med Chem Lett, 2007)
The source made the active and inactive calls. The rule behind the calls is not given here.

Tests used:
[1] = Inhibition of farnesyl transferase; parameters: species or system Homo sapiens
[2] = Antiproliferative effect on human aortic smooth muscle cells; assay type: functional
[3] = organism: Homo sapiens; test: Effect on FTase mediated Ras farnesylation in human aortic smooth muscle cells at 250 uM after 72 hrs by Western blot analysis
[4] = organism: Homo sapiens; test: Effect on FTase mediated Ras farnesylation in human aortic smooth muscle cells at 2 uM after 72 hrs by Western blot analysis

Structure (SMILES) | IC50 [1] | further results
CSCC[C@H](NC(=O)c1ccc(OC[C@@H]2COc3ncccc3O2)cc1-c1ccccc1C)C(=O)O | 0.045 µM | IC50 [2]: 58.8 µM; Activity [3]: Active
CSCC[C@H](NCc1cccc(NC(=O)C[C@H]2COc3ncccc3O2)c1-c1ccccc1C)C(=O)O | 12 µM | 
CSCC[C@@H](NC(=O)c1ccc(OC[C@@H]2COc3ncccc3O2)cc1-c1ccccc1C)C(=O)O | 0.053 µM | IC50 [2]: 16.8 µM; Activity [3]: Active
COc1ccccc1-c1cc(OC[C@H]2COc3ncccc3O2)ccc1C(=O)N[C@@H](CCSC)C(=O)O | 0.053 µM | 
CCC(C)(C)C(=O)O[C@H]1C[C@@H](C)C=C2C=C[C@H](C)[C@H](CC[C@@H]3C[C@@H](O)CC(=O)O3)[C@H]21 |  | Activity [4]: Active
CSCC[C@@H](NC(=O)c1ccc(OC[C@H]2COc3ncccc3O2)cc1-c1ccccc1C)C(=O)O | 0.075 µM | IC50 [2]: 238 µM
COc1ccccc1-c1c(CN[C@@H](CCSC)C(=O)O)cccc1NC(=O)C[C@@H]1COc2ncccc2O1 (mixture of isomers) | 151 µM | 
CSCC[C@H](NC(=O)c1ccc(OC[C@H]2COc3ncccc3O2)cc1-c1ccccc1C)C(=O)O | 0.05 µM | IC50 [2]: 158 µM

Further lines, with some results ahead:

IC50 [1] | Structure (SMILES) | further results
0.055 µM | COc1ccccc1-c1cc(OC[C@@H]2COc3ncccc3O2)ccc1C(=O)N[C@@H](CCSC)C(=O)O (mixture of isomers) | 
0.112 µM | COc1ccccc1-c1cc(OC[C@@H]2COc3ncccc3O2)ccc1C(=O)N[C@H](CCSC)C(=O)O | 
> 1000 µM | CSCC[C@@H](NCc1cccc(NC(=O)C[C@H]2COc3ncccc3O2)c1-c1ccccc1C)C(=O)O (mixture of isomers) | 
> 1000 µM | COc1ccccc1-c1cc(OC[C@H]2COc3ncccc3O2)ccc1C(=O)N[C@H](CCSC)C(=O)O | 
16 µM | CSCC[C@H](NCc1cccc(NC(=O)C[C@@H]2COc3ncccc3O2)c1-c1ccccc1C)C(=O)O (mixture of isomers) | 
843 µM | COc1ccccc1-c1c(CN[C@H](CCSC)C(=O)O)cccc1NC(=O)C[C@H]1COc2ncccc2O1 (mixture of isomers) | 
> 1000 µM | CSCC[C@@H](NCc1cccc(NC(=O)C[C@@H]2COc3ncccc3O2)c1-c1ccccc1C)C(=O)O | 
302 µM | COc1ccccc1-c1c(CN[C@@H](CCSC)C(=O)O)cccc1NC(=O)C[C@H]1COc2ncccc2O1 | 
> 1000 µM | COc1ccccc1-c1c(CN[C@H](CCSC)C(=O)O)cccc1NC(=O)C[C@@H]1COc2ncccc2O1 | 
